Source: paper PMC4890124, “Antimicrobial activity, improved cell selectivity and mode of action of short PMAP-36-derived peptides against bacteria and Candida” (Scientific Reports, 2016)
≈ marks a conversion by molar mass, not a printed value. Like-named read-outs stand apart in the source and are kept apart here. Marks after values point to notes of the source that are not given here. Peptide text beside a SMILES is read from it.

Tests used:
[1] = test system: C. albicans CA276 (clinical isolate); assay: microbe, parasite or virus in culture; assay type: cell-based, Candida albicans
Text: (§1) The antifungal activities were monitored in RPMI-1640 broth medium by a 2-fold microdilution assay according to the Clinical and Laboratory Standards Institute (CLSI) methods. The Candida albicans CGMCC 2.2086, Candida tropicalis CGMCC 2.1975, and Candida krusei CGMCC 2.1857 fungal strains were purchased from the China General Microbiological Culture Collection Center (CGMCC, Beijing, China). Clinically isolated Candida albicans CA2761 was provided by the 4th Affiliated Hospital of Harbin Medical University. Briefly, fungal strains were cultured on YPD agar plates (1% peptone, 0.5% yeast extract, 1% glucose and 2% agar) at 28 °C to prepare Candida suspensions with a turbidity of a 0.5 McFarland standard. A total of 50 μl inoculum cell suspension diluted in RPMI-1640 broth medium was added to an equal volume of peptide solution to achieve a final peptide concentrations ranging from 0.25 μM to 128 μM in a 96-well plate. Pure broth alone or with inoculum suspensions was used as the negative control or the positive control, respectively. The plate was incubated at 28 °C for 48 h. MIC was considered the lowest concentration at which no fungal growth was visually observed under experimental conditions. […] After 48 h incubation at 28 °C, MFC was defined as the lowest concentration of peptides that killed at least 99.9% of the initial inoculums. Experiments were performed in triplicate with three biological replicates.

[2] = test system: Candida albicans CGMCC 2.2086; assay: microbe, parasite or virus in culture; assay type: cell-based
Text: as §1

[3] = test system: Candida tropicalis CGMCC 2.1975; assay: microbe, parasite or virus in culture; assay type: cell-based
Text: as §1

[4] = test system: Candida krusei CGMCC 2.1857; assay: microbe, parasite or virus in culture; assay type: cell-based
Text: as §1

[5] = test system: Bacillus subtilis CMCC 63501; assay type: cell-based; conditions: CMCC 63501, 18 h
Procedure: (§2) The peptide antibacterial activity was determined against both gram-positive and gram-negative bacteria strains, including Escherichia coli ATCC 25922, Escherichia coli UB1005, Salmonella enterica serovar typhimurium C77-31, Staphylococcus aureus ATCC 29213, Staphylococcus aureus ATCC 25923, Bacillus subtilis CMCC 63501, and Staphylococcus epidermidis ATCC 12228. Clinically isolated Escherichia coli EC183 was provided by the 4th Affiliated Hospital of Harbin Medical University. MIC of the peptides was measured using a modified version of the National Committee for Clinical Laboratory Standards (NCCLS) broth microdilution method as described previously. The bacterial strains were inoculated and grown to mid-log phase in fresh Mueller-Hinton broth (MHB) at 37 °C. Bacterial inoculum suspensions were prepared at a final concentration of approximately 1 × 10^5 CFU/ml. Peptides were 2-fold serially diluted to make different concentrations, from 0.5 to 256 μM. Equal volumes of inoculum suspensions were then added to each well of a sterile 96-well plate with different concentrations of peptides, and the plate was incubated for 18 h at 37 °C. Broth with or without bacteria was employed as the positive control or the negative control, respectively. MIC was defined as the lowest concentration of peptides that prevented visible turbidity by visual inspection. […] After overnight incubation at 37 °C, MBC was defined as the lowest concentration of peptides that killed at least 99.9% of the initial inoculums. Experiments were performed in triplicate with three biological replicates.

[6] = test system: Staphylococcus aureus ATCC 29213; assay type: cell-based; conditions: ATCC 29213, 18 h
Procedure: as §2

[7] = test system: Clinically isolated Escherichia coli EC183; assay type: cell-based; conditions: Clinically isolated EC183, 18 h
Procedure: as §2

[8] = test system: Salmonella enterica serovar typhimurium C77-31; assay type: cell-based; conditions: three independent experiments; for MBC S. typhi C77-31: lowest concentration killing at least 99.9% of initial inoculum
Procedure: as §2

[9] = test system: Staphylococcus epidermidis ATCC 12228; assay type: cell-based; conditions: ATCC 12228, 18 h
Procedure: as §2

[10] = test system: Staphylococcus aureus ATCC 25923; assay type: cell-based; conditions: ATCC 25923, 18 h
Procedure: as §2

[11] = test system: Escherichia coli ATCC 25922; assay type: cell-based; conditions: ATCC 25922, 18 h
Procedure: as §2

Escherichia coli UB1005 = assay type: cell-based; conditions: UB1005, 18 h
Procedure: as §2

[12] = Candida albicans, CLSI 2-fold microdilution, RPMI-1640, 28 °C for 48 h, visual, three independent experiments
[13] = Candida albicans, lowest concentration killing at least 99.9% of initial inoculum, YPD agar, 48 h at 28 °C, three independent experiments
[14] = Candida albicans, CGMCC2, CLSI 2-fold microdilution, RPMI-1640, 28 °C for 48 h, visual, three independent experiments
[15] = Candida albicans, CGMCC2, lowest concentration killing at least 99.9% of initial inoculum, YPD agar, 48 h at 28 °C, three independent experiments
[16] = Candida tropicalis, CGMCC2, CLSI 2-fold microdilution, RPMI-1640, 28 °C for 48 h, visual, three independent experiments
[17] = Candida tropicalis, CGMCC2, lowest concentration killing at least 99.9% of initial inoculum, YPD agar, 48 h at 28 °C, three independent experiments
[18] = Pichia kudriavzevii, CGMCC2, CLSI 2-fold microdilution, RPMI-1640, 28 °C for 48 h, visual, three independent experiments
[19] = Pichia kudriavzevii, CGMCC2, lowest concentration killing at least 99.9% of initial inoculum, YPD agar, 48 h at 28 °C, three independent experiments
[20] = CGMCC 2.1975, 48 h, read-out: MFC C. tropicalis 2.1975
[21] = CGMCC 2.1975, 48 h, read-out: MIC C. tropicalis 2.1975

SMILES	MIC [1, 12] [µM]	MFC [1, 13] [µM]	MIC [2, 14] [µM]	MFC [2, 15] [µM]	MIC [3, 16] [µM]	MFC [3, 17] [µM]	MIC [4, 18] [µM]	MFC [4, 19] [µM]	MFC C. albicans CA276 ([1]; CA276 (clinical isolate, 48 h)) [µM]	MIC C. albicans CA276 ([1]; CA276 (clinical isolate, 48 h)) [µM]	MBC B. subtilis 63501 [5]	MIC B. subtilis 63501 [5]	MBC S. aureus 29213 [6] [µM]	MBC E. coli EC183 [7] [µM]	MIC E. coli EC183 [7] [µM]	MBC S. typhi C77-31 [8] [µM]	MBC S. epidermidis 12228 [9]	MBC S. aureus 25923 [10]	MBC E. coli 25922 [11] [µM]	MBC E. coli 1005 (Escherichia coli UB1005)	other results
C[C@@H]1[C@H](O)[C@@H](C)/C=C/C=C/C=C/C=C/C=C/C=C/C=C/[C@H](O[C@@H]2O[C@H](C)[C@@H](O)[C@H](N)[C@@H]2O)C[C@@H]2O[C@](O)(C[C@@H](O)C[C@@H](O)[C@H](O)CC[C@@H](O)C[C@@H](O)CC(=O)O[C@H]1C)C[C@H](O)[C@H]2C(=O)O [Amphotericin B, reference compound]	0.5 (≈ 0.462 µg/mL)	1 (≈ 0.924 µg/mL)	0.25 (≈ 0.231 µg/mL)	0.25 (≈ 0.231 µg/mL)	0.25 (≈ 0.231 µg/mL)	1 (≈ 0.924 µg/mL)	1 (≈ 0.924 µg/mL)	1 (≈ 0.924 µg/mL)													
OC(Cn1cncn1)(Cn1cncn1)c1ccc(F)cc1F [Fluconazole, reference compound]	2 (≈ 0.613 µg/mL)	2 (≈ 0.613 µg/mL)	2 (≈ 0.613 µg/mL)	2 (≈ 0.613 µg/mL)	0.25 (≈ 0.0766 µg/mL)	1 (≈ 0.306 µg/mL)	64 (≈ 19.6 µg/mL)	64 (≈ 19.6 µg/mL)													
CC[C@H](C)[C@H](NC(=O)[C@H](CCCCN)NC(=O)[C@H](CCCCN)NC(=O)[C@H](CC(C)C)NC(=O)[C@H](CCCNC(=N)N)NC(=O)[C@H](CCCCN)NC(=O)[C@H](CCCNC(=N)N)NC(=O)[C@@H](NC(=O)[C@H](CCCCN)NC(=O)[C@H](CCCCN)NC(=O)[C@H](CCCNC(=N)N)NC(=O)[C@H](CC(C)C)NC(=O)[C@H](CCCNC(=N)N)NC(=O)[C@H](CCCNC(=N)N)NC(=O)[C@H](Cc1ccccc1)NC(=O)[C@H](CCCNC(=N)N)NC(=O)CN)[C@@H](C)O)C(=O)NCC(=O)N[C@@H](CCCCN)C(=O)N[C@H](C(=O)N[C@@H](CC(C)C)C(=O)N[C@@H](CCCCN)C(=O)N[C@@H](Cc1c[nH]c2ccccc12)C(=O)N[C@H](C(=O)N1CCC[C@H]1C(=O)N1CCC[C@H]1C(=O)N[C@H](C(=O)N[C@H](C(=O)NCC(=O)N[C@@H](CO)C(=O)N[C@H](C(=O)N1CCC[C@H]1C(=O)N[C@@H](CC(C)C)C(=O)NCC(=O)N[C@@H](CS)C(=O)NCC(N)=O)[C@@H](C)CC)C(C)C)[C@@H](C)CC)[C@@H](C)CC)C(C)C [PMAP-36] (H-GRFRRLRKKTRKRLKKIGKVLKWIPPIVGSIPLGCG-NH2)									128 (≈ 532 µg/mL)	128 (≈ 532 µg/mL)	1 (1) μM	1 (1) μM	4 (≈ 16.6 µg/mL)	1 (≈ 4.16 µg/mL)	1 (≈ 4.16 µg/mL)	2 (≈ 8.31 µg/mL)	4 µM (≈ 16.6 µg/mL)	4 µM (≈ 16.6 µg/mL)	4 (≈ 16.6 µg/mL)	2 ^c (2) μM	MFC C. albicans 2.2086 ([2]; CGMCC 2.2086, 48 h): 128 µM (≈ 532 µg/mL); MIC C. albicans 2.2086 ([2]; CGMCC 2.2086, 48 h): 128 µM (≈ 532 µg/mL); MFC [3, 20]: 2 µM (≈ 8.31 µg/mL); MIC [3, 21]: 1 µM (≈ 4.16 µg/mL); MFC C. krusei 2.1857 ([4]; CGMCC 2.1857, 48 h): 8 µM (≈ 33.3 µg/mL); MIC C. krusei 2.1857 ([4]; CGMCC 2.1857, 48 h): 8 µM (≈ 33.3 µg/mL)
CC[C@H](C)[C@H](NC(=O)[C@H](Cc1c[nH]c2ccccc12)NC(=O)[C@H](CCCCN)NC(=O)[C@H](CC(C)C)NC(=O)[C@@H](NC(=O)[C@H](CCCCN)NC(=O)CNC(=O)[C@@H](NC(=O)[C@H](CCCCN)NC(=O)[C@H](CCCCN)NC(=O)[C@H](CC(C)C)NC(=O)[C@@H](N)CCCNC(=N)N)[C@@H](C)CC)C(C)C)C(N)=O [RI12] (H-RLKKIGKVLKWI-NH2)									128 (≈ 190 µg/mL)	128 (≈ 190 µg/mL)	8 µM (≈ 11.8 µg/mL)	2 µM (≈ 2.96 µg/mL)	128 (≈ 190 µg/mL)	4 (≈ 5.92 µg/mL)	2 (≈ 2.96 µg/mL)	32 (≈ 47.4 µg/mL)	64^c (64) μM	128^c (128) μM	32 (≈ 47.4 µg/mL)	32 µM (≈ 47.4 µg/mL)	MFC C. albicans 2.2086 ([2]; CGMCC 2.2086, 48 h): 128 µM (≈ 190 µg/mL); MIC C. albicans 2.2086 ([2]; CGMCC 2.2086, 48 h): 128 µM (≈ 190 µg/mL); MFC C. tropicalis 2.1975 ([3]; CGMCC 2.1975, 48 h): 8 µM (≈ 11.8 µg/mL); MIC C. tropicalis 2.1975 ([3]; CGMCC 2.1975, 48 h): 8 µM (≈ 11.8 µg/mL); MFC C. krusei 2.1857 ([4]; CGMCC 2.1857, 48 h): 16 µM (≈ 23.7 µg/mL); MIC C. krusei 2.1857 ([4]; CGMCC 2.1857, 48 h): 16 µM (≈ 23.7 µg/mL)
CC[C@H](C)[C@H](NC(=O)[C@H](Cc1c[nH]c2ccccc12)NC(=O)[C@H](CCCCN)NC(=O)[C@H](CC(C)C)NC(=O)[C@@H](NC(=O)[C@H](CCCCN)NC(=O)CNC(=O)[C@@H](NC(=O)[C@H](CCCCN)NC(=O)[C@H](CCCCN)NC(=O)[C@H](CC(C)C)NC(=O)[C@H](CCCNC(=N)N)NC(=O)[C@H](CCCCN)NC(=O)[C@H](CCCNC(=N)N)NC(=O)[C@@H](NC(=O)[C@H](CCCCN)NC(=O)[C@H](CCCCN)NC(=O)[C@@H](N)CCCNC(=N)N)[C@@H](C)O)[C@@H](C)CC)C(C)C)C(N)=O [RI18] (H-RKKTRKRLKKIGKVLKWI-NH2)											2 µM (≈ 4.56 µg/mL)	1 µM (≈ 2.28 µg/mL)	4 (≈ 9.12 µg/mL)	2 (≈ 4.56 µg/mL)	1 (≈ 2.28 µg/mL)	4 (≈ 9.12 µg/mL)	16 µM (≈ 36.5 µg/mL)	8 µM (≈ 18.2 µg/mL)	4 (≈ 9.12 µg/mL)	4 µM (≈ 9.12 µg/mL)	MFC ([1]; CA276 (clinical isolate, 48 h)): 16 µM (≈ 36.5 µg/mL); MIC ([1]; CA276 (clinical isolate, 48 h)): 8 µM (≈ 18.2 µg/mL); MIC S. aureus 29213 [6]: 4 µM (≈ 9.12 µg/mL); MIC S. typhi C77-31 ([8]; broth microdilution, MHB, ~1 × 10^5 CFU/ml, 18 h at 37 °C, visual): 2 µM (≈ 4.56 µg/mL); MIC S. epidermidis 12228 [9]: 4 µM (≈ 9.12 µg/mL); MIC S. aureus 25923 [10]: 8 µM (≈ 18.2 µg/mL); MIC E. coli 25922 [11]: 2 µM (≈ 4.56 µg/mL); MIC E. coli 1005 (Escherichia coli UB1005): 2 µM (≈ 4.56 µg/mL); MFC ([2]; CGMCC 2.2086, 48 h, read-out: MFC C. albicans 2.2086): 32 µM (≈ 72.9 µg/mL); MIC ([2]; CGMCC 2.2086, 48 h, read-out: MIC C. albicans 2.2086): 16 µM (≈ 36.5 µg/mL); MFC [3, 20]: 4 µM (≈ 9.12 µg/mL); MIC [3, 21]: 2 µM (≈ 4.56 µg/mL); MFC ([4]; CGMCC 2.1857, 48 h, read-out: MFC C. krusei 2.1857): 8 µM (≈ 18.2 µg/mL); MIC ([4]; CGMCC 2.1857, 48 h, read-out: MIC C. krusei 2.1857): 4 µM (≈ 9.12 µg/mL)
